In US5648386A (priority 1990, dated 1997):
“Also recorded” adds a separate entry of the source.

Experiments:
lambs = assay: performance enhancing effect in lambs (feed, 6 weeks); format: in vivo, Suffolk×Galway wether lambs; conditions: for Weight of carcass / Final weight / Composition of carcass tissue (without bones): Protein / Feed utilization in g of weight gain per kg of feed / Composition of carcass tissue (without bones): Fat / Weight gain in g per day / Composition of carcass tissue (without bones): Water: 2 mg/kg in feed, 6 weeks; for Starting weight: baseline, control 34.4
Description: 2. […] At the same time steps were taken to ensure that the lambs were offered at least 10% excess feed during the experimental period. The lambs were then killed and the following parameters were obtained: […]

[1] = system: β-receptors of the skeletal musculature; assay: β-mimetic effect on skeletal musculature (BOWMAN and NOTT): tension of incompletely tetanically contracting M. soleus of anaesthetized cats i.v.; format: in vivo; conditions: for Reduction in tension in % (x): anaesthetized cats, M. soleus, n=5
Experimental: (§1) 1. […] They were also compared for their acute toxicity.
The β-mimetic effect on the skeletal musculature was tested using the method of BOWMAN and NOTT (Pharmacol. Rev. 21, 27 (1969)). This investigates the influence on the tension of the incompletely tetanically contracting M. soleus of anaesthetized cats after i.v. administration.

animals = conditions: U.S. Pat. No. 4,407,819; cited from earlier work
mice = assay: acute toxicity in male and female mice i.v.; format: in vivo
Experimental: as §1
(§2) The acute toxicity was measured in male and female mice weighing between 20 and 25 g after intravenous administration. An LD50 was calculated by […] from the percentage of animals which died within 14 days of being given the substance.

fat cells = assay: β-mimetic effect on fat cells: lipolytic effect (free fatty acids in blood) in conscious rabbits i.v.; format: in vivo; conditions: for ED150 (dose which resulted in a 50% increase in the free fatty acid in the blood): conscious rabbits, linear regression, range in parentheses
Description: as §1
The β-mimetic effect on the fat cells was investigated in terms of a lipolytic effect on conscious rabbits after i.v. administration.

[2] = acute toxicity in male and female mice i.v.; format: in vivo; conditions: mouse, in vivo, iv, male and female mice, death within 14 days, range in parentheses
Experimental: as §1, §2

[3] = overall comparison of the enantiomers (biological effects, use to risk); format: in vivo; conditions: (-)- vs (+)-cimaterol, words

SMILES | Starting weight (lambs) [kg] | Reduction in tension in % (x) ([1]; dose 0.5 μg/kg) [%] | Weight of carcass (lambs; control 22.8, 2 mg/kg) [kg] | Final weight (lambs; control 45.4, 2 mg/kg) [kg] | Composition of carcass tissue (without bones): Protein (lambs; control 140, 2 mg/kg) [g per kg] | Feed utilization in g of weight gain per kg of feed (lambs; control 190, 2 mg/kg) | Composition of carcass tissue (without bones): Fat (lambs; control 248, 2 mg/kg) [g per kg] | Weight gain in g per day (lambs; control 259, 2 mg/kg) [g per day] | Composition of carcass tissue (without bones): Water (lambs; control 501, 2 mg/kg) [g per kg] | ED150 (dose which resulted in a 50% increase in the free fatty acid in the blood) (fat cells) | further results
CC(C)NCC(O)c1ccc(N)c(C#N)c1 (racemic) [Cimaterol, 1-(4'-amino-3'-cyano-phenyl)-2-isopropylaminoethanol, reference compound] | 34.9 | 38.3 | – | – | – | – | – | – | – | – | Weight of carcass (lambs; control 22.8): 24.0 kg; Final weight (lambs; control 45.4): 46.0 kg; Composition of carcass tissue (without bones): Protein (lambs; control 140): 167 g per kg; Feed utilization in g of weight gain per kg of feed (lambs; control 190): 196 g of weight gain per kg of fee; Composition of carcass tissue (without bones): Fat (lambs; control 248): 265 g per kg; Weight gain in g per day (lambs; control 259): 275 g per day; Composition of carcass tissue (without bones): Water (lambs; control 501): 556 g per kg; performance-enhancing effect (animals): performance-enhancing effect
CC(C)NCC(O)c1ccc(N)c(C#N)c1 (single isomer, unassigned; (+)) [(+)-Cimaterol, (+)-1-(4'-Amino-3'-cyano-phenyl)-2-isopropylamino-ethanol] | 34.8 | – | 22.5 | 45.7 | 151 | 184 g of weight gain per kg of fee | 341 | 268 | 501 | 9.770 (7.440-12.700) μg/kg | Reduction in tension in % (x) ([1]; dose 50.0 μg/kg): 33.7%; LD50 (mice; male and female mice, death within 14 days, range in parentheses, 20160 min): 86.3 (80.6-92.3) mg/kg; toxicity of the D-enantiomer compared with the L-enantiomer (mice; mice, words): the same toxicity as the L-enantiomer; doses needed to achieve a 50% increase in the free fatty acids, times greater than those of the corresponding L-enantiomer (fat cells; D- vs L-enantiomer, rabbits): about 100 times
CC(C)NCC(O)c1ccc(N)c(C#N)c1 (single isomer, unassigned; (-)) [(-)-Cimaterol, (-)-1-(4'-Amino-3'-cyano-phenyl)-2-isopropylamino-ethanol] | 34.2 | 42.1 | 24.1 | 48.0 | 177 | 220 g of weight gain per kg of fee | 252 | 324 | 557 | 0.098 (0.078-0.118) μg/kg | times more effective than the corresponding D-enantiomer on the β-receptors of the skeletal musculature ([1]; L- vs D-enantiomer, cats): more than 100 times; LD50 at 336 h [2]: 74.8 mg/kg; carrier of the biological / desired effects of cimaterol [3]: the only carrier of the biological effects of cimaterol; also recorded: the sole carrier of the desired effects
